Reference: PubChem BioAssay (NCI)
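How tested: cells in 96-well plates exposed to compound for 48 hours at five concentrations. GI50 = concentration required for 50% inhibition of growth. Definition used: TGI = concentration required for complete inhibition of growth.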

Tests used:
Assay in all cases: NCI tumour cell line growth inhibition, 48 h
COLO 205 colon = tested on: COLO 205 colon
HCT-15 colon = tested on: HCT-15 colon
LOX IMVI melanoma = tested on: LOX IMVI melanoma
MALME-3M melanoma = tested on: MALME-3M melanoma
OVCAR-3 ovarian = tested on: OVCAR-3 ovarian
RXF 393 renal = tested on: RXF 393 renal
SF-295 CNS = tested on: SF-295 CNS
SNB-75 CNS = tested on: SNB-75 CNS
SK-MEL-2 melanoma = tested on: SK-MEL-2 melanoma
PC-3 prostate = tested on: PC-3 prostate

| Compound | TGI (COLO 205 colon) | TGI (HCT-15 colon) | TGI (LOX IMVI melanoma) | TGI (MALME-3M melanoma) | TGI (OVCAR-3 ovarian) | TGI (RXF 393 renal) | TGI (SF-295 CNS) | TGI (SNB-75 CNS) | TGI (SK-MEL-2 melanoma) | GI50 (LOX IMVI melanoma) | GI50 (OVCAR-3 ovarian) | GI50 (RXF 393 renal) | GI50 (SF-295 CNS) | GI50 (SK-MEL-2 melanoma) | GI50 (SNB-75 CNS) | GI50 (COLO 205 colon) | GI50 (HCT-15 colon) | GI50 (MALME-3M melanoma) | GI50 (PC-3 prostate) | TGI (PC-3 prostate) |
| --- | --- | --- | --- | --- | --- | --- | --- | --- | --- | --- | --- | --- | --- | --- | --- | --- | --- | --- | --- | --- |
| O=C(O)/C(Cl)=C(\Cl)Nc1cccc(C(F)(F)F)c1 | > 100 µM | > 100 µM | > 100 µM | > 100 µM | > 100 µM | > 100 µM | > 100 µM | > 100 µM |  |  |  |  |  |  |  |  |  |  |  |  |
| CN1CCC23c4c5ccc(O)c4OC2C(=NN=C2CCC4(O)C6Cc7ccc(O)c8c7C4(CCN6C)C2O8)CCC3(O)C1C5 (stereo not given) | > 100 µM | > 100 µM | > 100 µM | > 100 µM | > 100 µM |  | > 100 µM | > 100 µM | > 100 µM |  |  |  |  |  |  |  |  |  |  |  |
| COC(=O)C1=CC(O)CCC1c1ccc(OC)cc1 (stereo not given) | > 100 µM | > 100 µM | > 100 µM | > 100 µM | > 100 µM | > 100 µM | > 100 µM | > 100 µM | > 100 µM |  |  |  |  |  |  |  |  |  |  |  |
| CCc1ccccc1NC(=O)/C(CC(=O)c1c(C)n([O-])c2ccccc2[n+]1=O)=N\NS(=O)(=O)c1ccc(C)cc1 | > 100 µM | > 100 µM |  | > 100 µM | 80.2 µM | > 100 µM | > 100 µM | > 100 µM | > 100 µM |  |  |  |  |  |  |  |  |  |  |  |
| Cc1ccc(-c2csc(N(C(=O)N3CCN(c4cc5c(cc4F)c(=O)c(C(=O)O)cn5C4CC4)CC3)c3ccccc3)n2)cc1 |  |  | > 100 µM |  | > 100 µM | 20.5 µM | 1.86 µM | 4.17 µM | 1.75 µM | 0.305 µM | 0.391 µM | 0.368 µM | 0.303 µM | 0.344 µM | 0.357 µM |  |  |  |  |  |
| CC(=O)O[C@H](C[C@H](C(C)C)N(C)C(=O)[C@@H](NC(=O)[C@H]1CCCCN1C)C(C)C)c1nc(C(=O)N[C@@H](Cc2ccccc2)C[C@H](C)C(=O)O)c(C)s1 | 0.00595 µM | > 25 µM | > 25 µM | > 25 µM | > 25 µM |  | > 25 µM | > 25 µM | > 25 µM | < 0.0025 µM | < 0.0025 µM |  | < 0.0025 µM | < 0.0025 µM | < 0.0025 µM | < 0.0025 µM | 0.00385 µM | 4.56 µM | < 0.0025 µM | > 25 µM |
| COc1cc(C(=O)C/C(CCC(=O)Nc2ccccc2[N+](=O)[O-])=N\NC(=O)C(N)=O)ccc1O | > 100 µM | > 100 µM | > 100 µM |  | > 100 µM | > 100 µM | > 100 µM |  | > 100 µM |  |  |  |  |  |  |  |  |  |  |  |
| O=c1ncc(-c2ccc(C(F)(F)F)cc2)c(NC2CCCCCC2)[nH]1 | 34.7 µM | 64.6 µM |  | 33.7 µM | 34.6 µM | 31.8 µM | 34 µM | 33.4 µM |  |  | 17.2 µM | 15.8 µM | 17 µM |  | 13.7 µM | 19.6 µM | 22.1 µM | 17.2 µM | 19 µM | 54.9 µM |
| COc1ccc2cc(C(=O)c3ccccc3C(=O)O)ccc2c1 | > 100 µM | > 100 µM | > 100 µM | > 100 µM | > 100 µM | > 100 µM | > 100 µM | > 100 µM | > 100 µM |  |  |  |  |  |  |  |  |  |  |  |
| Cc1nc(NC(=S)NC(=O)c2ccc(Cl)c(Cl)c2)sc1C(=O)/C=C/c1ccccc1[N+](=O)[O-] | 34.9 µM | 51 µM | 34.3 µM | 41.9 µM | 51.7 µM | 41 µM | 58.9 µM |  | 44.4 µM |  |  |  |  |  |  |  |  |  |  |  |
| COC1=CC(=O)c2ccc(C(C)C)cc2C1(C)C1=NC(C)(C)CO1 (stereo not given) | > 100 µM | > 100 µM |  | > 100 µM | > 100 µM | > 100 µM | > 100 µM | > 100 µM | > 100 µM |  |  |  |  |  |  |  |  |  |  |  |
| C[C@H](c1ccc(Cl)cc1N)N1C(=O)c2cc(I)ccc2N(CCCN2CCN(C)CC2)C(=O)[C@@H]1c1ccc(Cl)cc1 |  | 3.2 µM |  | 1.27 µM | 3.28 µM |  |  |  | 3.37 µM |  | 1.8 µM |  |  | 1.81 µM |  |  | 1.68 µM | 0.242 µM |  |  |
| CC(C)(Cl)CCC1=C(Cl)C(=O)c2ccccc2C1=O | 4.12 µM | 3.05 µM | 3.26 µM |  | 3.17 µM |  | 11 µM | 6.44 µM | 4.97 µM | 1.73 µM | 1.72 µM |  | 3.22 µM | 2.43 µM | 1.69 µM | 2.07 µM | 1.58 µM |  | 2.27 µM | 8.07 µM |
| COc1ccccc1/C=C/C(=O)c1sc(-c2cccnc2)nc1C | > 100 µM | > 100 µM | > 100 µM | > 100 µM | > 100 µM | > 100 µM | > 100 µM | > 100 µM | > 100 µM |  |  |  |  |  |  |  |  |  |  |  |
| CCCCCCCC[N+](C)(C)Cc1ccc(C[N+](C)(C)CCCCCCCC)cc1 | 3.48 µM | > 100 µM | > 100 µM | > 100 µM | > 100 µM | > 100 µM | > 100 µM | > 100 µM | > 100 µM |  |  |  |  |  |  |  |  |  |  |  |
| CC(C#N)c1cn(S(=O)(=O)c2ccccc2)c2ccccc12 (stereo not given) | > 100 µM | > 100 µM |  | > 100 µM | > 100 µM |  | > 100 µM | 38.2 µM | > 100 µM |  |  |  |  |  |  |  |  |  |  |  |
| O=c1c(O)c(-c2ccc(O)c(O)c2)oc2cc(O)ccc12 | > 100 µM | 98.4 µM | 32.4 µM | > 77 µM | 62 µM | 47 µM | 54.4 µM | 18.2 µM | 23.2 µM |  |  |  |  |  |  |  |  |  |  |  |
| C=C(C)C1CC=C(C(=O)O)CC1 (stereo not given) | 1620 µM | 1670 µM | 3440 µM | 1630 µM | 1660 µM | 3110 µM | > 5000 µM | 3780 µM | 3220 µM |  |  |  |  |  |  |  |  |  |  |  |
| COc1cc2[nH]c(C(=O)c3cc(OC)c(OC)c(OC)c3)c(N)c2cc1C#CCO | 0.842 µM | > 100 µM | 21.5 µM | > 100 µM | 0.243 µM |  |  |  | > 100 µM | 0.502 µM | 0.0491 µM |  |  | 0.485 µM |  | 0.268 µM | 0.432 µM | 0.143 µM | 0.277 µM | > 100 µM |
| COc1ccc2[nH]c3c4c(c5cc(C(C)(C)C)ccc5c3c2c1)C(=O)N(c1ccccc1)C4=O | > 100 µM |  | > 100 µM | > 100 µM | > 100 µM | > 100 µM | > 100 µM | > 100 µM | > 100 µM |  |  |  |  |  |  |  |  |  |  |  |
